Results reported in paper PMC12030062, “From In Vitro Cytotoxicity to In Vivo Zebrafish Assays: A Study on 3,3-Dichloro β-, γ- and δ-Lactams and Their Biological Activity Profiles” (Pharmaceuticals, 2025).
Converted amounts (≈) assume the structure as drawn.

What was measured:
[1] = Fish embryo acute toxicity (FET): lethality and dysmorphogenesis; format: in vivo; conditions: zebrafish, in vivo, exposure 2 to 72 hpf, read at 72 hpf
Procedure: (§1) Zebrafish provide a widely used vertebrate model for cost-effective, in vivo whole-organism screening.
(§2) (2 mM CaCl2•2 H2O; 0.5 mM MgSO4•7 H2O; 0.75 mM NaHCO3; 0.07 mM KCl). The fish were maintained at a temperature of 26 ± 1 °C on a 14-h light and 10-h dark cycle and were fed daily in the morning with Artemia salina, then with commercial flake food in the afternoon (SDS400, Special Diet Services, Dietex, France). For optimal Zebrafish reproduction, we used animals between 6 months and a year old. The day before the eggs were needed, males and females were placed in a breeding tank with plants at a 2:1 male-to-female ratio (usually using 8 males and 4 females in a big breeding tank). The following morning, eggs were collected 30 min after the lights were turned on. […] Fertilized, non-coagulated, and synchronously divided eggs were selected using a stereomicroscope (Motic SMZ168, Motic Hong Kong Ltd., Hong Kong, China) and transferred to 6-well plates (10 embryos/well). The embryos were exposed to freshly prepared tested concentrations of the compound in 0.3× Danieau’s solution. The chemical stock solution was prepared in 100% dimethylsulfoxide (DMSO) and subsequently diluted in Danieau’s buffer with a final DMSO concentration of 1% (v/v). Testing was carried out using five concentrations with a negative control of solvent with 1% of DMSO. Embryos were incubated at 27 ± 1 °C with a light:dark cycle of 14:10 h until 72 h post-fertilization (hpf) under semi-static conditions, as exposure solutions were renewed with freshly prepared solutions every 24 h. • Lethality and dysmorphogenesis evaluation At 24, 48, and 72 hpf, the embryos were observed under a stereomicroscope to assess lethality. […] At the end of the test, dysmorphogenesis was evaluated in the live embryos only. The average lethality and dysmorphogenesis were calculated for 10 embryos per concentration, followed by averaging the results of at least three independent experiments. […] Subsequently, the TER test was conducted according to the protocol described by Guzman et al.. […] The distance was averaged and converted from pixels to millimeters. This assay was performed only on larvae from concentration groups where both the lethality and dysmorphogenesis were less than 20%. Six larvae per concentration group were evaluated in at least three independent experiments. • Statistical analysis Statistical analysis was performed using GraphPad Prism v.10.0.2. The TER test was analyzed using a one-way ANOVA and a post hoc multiple-comparison Dunnett test. The significance threshold was established at p < 0.05.

Zebrafish embryos = experiment: as above; format: in vivo
Procedure: as §1, §2

[2] = tested on: murine Swiss albino fibroblast (3T3) cell line; experiment: Cell viability, NRU assay, 3T3; format: cell-based; conditions: Mus musculus, 24 h incubation, NRU endpoint
Procedure: (§3) Two different endpoints, 3-(4,5-dimethyl-2-thiazolyl)-2,5-diphenyltetrazolium bromide (MTT) and neutral red uptake (NRU), were used to assess differences in cell-induced cytotoxicity. […] In addition, NRU evaluates the interaction of these drugs with the plasmatic membrane. Cell responses were determined from the MTT [16] and NRU [17] assays, using the two proposed cell lines. Cytotoxicity assays were performed at concentrations equal to 80 and 250 µg/mL. The IC50 value, referring to the half-maximal inhibitory concentration, was determined as a key parameter in cytotoxicity studies (Table 1). It plays a crucial role in evaluating cell viability and assessing cellular responses to various drugs or toxins. For cases where IC50 values were below 80 µg/mL, additional studies at lower concentrations were conducted to accurately determine these values. […] The selectivity index (SI), used as a measurement of action against the tumor cell line in comparison with a normal cell line, was also included.
(§4) • In Vitro Assay Using Human Erythrocytes • - Acquisition and Extraction of the Erythrocytes Human blood samples were obtained from the Banc de Sang i Teixits de Barcelona (Spain) from the Catalan Department of Health. Blood was deposited in tubes with the anticoagulant EDTA-K3. Blood samples were centrifuged at 3000 rpm and 4 °C for 10 min (Megafuge 2.0 R. Heraeus Instruments, Hanau, Germany) to induce sedimentation. Plasma was extracted with a Pasteur pipette. Next, the residual pellet was washed with PBS at pH 7.4. This procedure was repeated three times to remove residual leukocytes and platelets and to concentrate the erythrocytes. Following the last wash, the erythrocyte suspension was diluted (1:1) in PBS at pH 7.4 to obtain a suitable erythrocyte suspension (cell density of 8 × 10^9 cell/mL). • - Hemolysis Assay The hemolysis assay determined the capability of different compounds to induce the hemolysis of the erythrocyte membrane. Stock solutions of each compound at 1 mg/mL in PBS at pH 7.4 were prepared. Different volumes (10–80 μL) were placed in polystyrene tubes, and an aliquot of 25 µL of the erythrocyte suspensions was added to each tube. The final volume was 1 mL. The tubes were incubated at room temperature under rotatory conditions. Then, the tubes were centrifuged at 10,000 rpm for 5 min. The supernatants’ absorbance at 540 nm (Shimadzu UV-160A, Shimadzu, Duisburg, Germany) was compared with that of the positive (erythrocytes hemolyzed with distilled water) and negative (erythrocyte suspension in PBS at pH 7.4) controls. The degree of hemolysis was determined using the following equation: Hemolysis (%) = 100 × (Abs − Abs0)/(Abs100 − Abs0) where Abs, Abs0, and Abs100 are the absorbance of the test samples, of the suspension treated with isotonic phosphate–buffered saline (PBS), and of the suspension of complete hemolysis treated with distilled water, respectively. • In Vitro Essay Using Cell Cultures The murine Swiss albino fibroblasts (3T3) and the squamous cell carcinoma (A431) cell lines were obtained from Celltec UB. Cells were grown in DMEM medium (4.5 g/L glucose) supplemented with 10% (v/v) FBS, 2 mM L-glutamine, 100 U/mL penicillin, and 100 µg/mL streptomycin at 37 °C with 5% CO2. Cells were routinely cultured in 75 cm^2 culture flasks and were trypsinized using trypsin–EDTA when the cells reached approximately 80% confluence. The trypan blue assay, which allows for the direct identification and enumeration of the live (unstained) and dead (blue) cells in the cell population, was used to evaluate the viability of the cells in the cell suspension obtained. • - Cell Viability Assays Cell lines of 3T3 (1 × 10^5 cells/mL) and A431 (5 × 10^4 cells/mL) were grown at defined densities in the 60 central wells of a 96-well plate. The cells were incubated for 24 h in 5% CO2 at 37 °C. […]

[3] = tested on: A431 cell line (squamous cell carcinoma); experiment: Cell viability, NRU assay, A431; format: cell-based, human
Procedure: as §3, §4

A431 cells = experiment: AO/EB double staining, cellular death events; format: cell-based, human; conditions: A431, 24 h, 10-160 µg/mL
[4] = tested on: murine Swiss albino fibroblast (3T3) cell line; experiment: Cell viability, MTT assay, 3T3; format: cell-based; conditions: 24 h incubation, MTT endpoint
Procedure: as §3, §4

SMILES: CC(C)(C)N1C(=O)C(Cl)(Cl)C1c1ccccc1 (stereo not shown) [Compound 1]
- LC50 [1]: 14.9 µg/mL (≈ 54.8 µM)
- EC50 (Zebrafish embryos; Danio rerio, read-out: EC50 (dysmorphogenesis)): 5.23 µg/mL (≈ 19.2 µM)
- teratogenic index (TI) (Zebrafish embryos; TI = LC50/EC50): 2.85
- teratogenicity classification (Zebrafish embryos; TI > 2): potential teratogen
- morphological abnormalities (Zebrafish embryos; embryos exposed 2 to 72 hpf): pericardial edema, large yolk sacs, and flexion abnormalities
- LC50 (lethality) (Zebrafish embryos; exposure 2 to 72 hpf, read at 72 hpf): 14.9 µg/mL (≈ 54.7 µM)
- IC50 [2]: > 250 µg/mL
- IC50 (NRU) A431 ([3]; 24 h incubation, NRU endpoint, A431): 35.74 ± 3.24 µg/mL (≈ 131 µM)
- IC50 ([3]; Homo sapiens, A-431, 24 h, 24 h incubation, NRU endpoint, A431): 35 µg/mL (≈ 129 µM)
- SI (NRU), selectivity index ([3]; SI = IC50 (3T3)/IC50 (A431), NRU): >>6.99
- mode of cell death (A431 cells): induces cell death primarily via apoptosis
- IC50 (MTT) 3T3 [4]: 210.42 ± 2.40 µg/mL (≈ 773 µM)
- IC50 ([4]; Mus musculus, 24 h): 210 µg/mL (≈ 772 µM)
